Measurements published in ChEMBL document CHEMBL6120974, “Hydrazide-Based Class I Selective HDAC Inhibitors Completely Reverse Chemoresistance Synergistically in Platinum-Resistant Solid Cancer Cells” (J Med Chem, 2024).
pIC50: −log10 of the molar value. The source made the active and inactive calls. The calls are words filed in the database; no cut-off is given here.

Columns and labels:
Histone deacetylase 3 = Histone deacetylase 3 (Homo sapiens, UniProt O15379); experiment: Inhibition of HDAC3 (unknown origin)
[1] = Lipophilicity, logD of the compound in 1-octanol/PBS buffer at pH 7.4 by HPLC/UV analysis; type: physicochemical; settings: octanol/water
A2780 [2] = experiment: Induction of apoptosis in human A2780 cells assessed as caspase-3/7 activation at 2 uM incubated for 48 hrs by capase3/7 green dye based analysis relative to control; type: functional
[3] = Induction of apoptosis in cisplatin resistant human Cal27CisR cells assessed as caspase-3/7 activation at 0.5 uM incubated for 48 hrs by capase3/7 green dye based analysis relative to control; type: functional
cells = settings: Homo sapiens, Cal27CisR, 72 h
Description: Cytotoxicity against cisplatin resistant human Cal27CisR cells assessed as reduction in cell viability incubated for 72 hrs by MTT assay

MV4-11 = experiment: cells; settings: Homo sapiens, MV4-11, 72 h
Description: Cytotoxicity against human MV4-11 cells harboring wild type p53 assessed as cell viability incubated for 72 hrs by MTT assay

A2780cisR [4] = experiment: cells; settings: Homo sapiens, 72 h
CAL-27 [5] = experiment: cells; settings: Homo sapiens, CAL-27, 72 h
Description: Cytotoxicity against human CAL-27 cells assessed as reduction in cell viability incubated for 72 hrs by MTT assay

CAL-27 [6] = experiment: Induction of apoptosis in human CAL-27 cells assessed as caspase-3/7 activation at 0.5 uM incubated for 48 hrs by capase3/7 green dye based analysis relative to control; type: functional
HL-60 = experiment: cells; settings: Homo sapiens, HL-60, 72 h
Description: Cytotoxicity against human HL-60 cells harboring p53 null assessed as cell viability incubated for 72 hrs by MTT assay

A2780cisR [7] = experiment: Induction of apoptosis in cisplatin resistant human A2780 cisR cells assessed as caspase-3/7 activation at 2 uM incubated for 48 hrs by capase3/7 green dye based analysis relative to control; type: functional
[8] = Cytotoxicity against human HEK293 cells assessed as reduction in cell viability incubated for 72 hrs by MTT assay; type: toxicity, cell-based
[9] = target: T1, Protein deacetylase HDAC6 (Homo sapiens) (UniProt Q9UBN7); experiment: (§1) Inhibition of N-terminal GST-tagged full length recombinant human HDAC6 (1 to 1215 end residues) expressed in sf9 cells at > 10 uM using ZMAL (Z-Lys(Ac)-AMC as fluorogenic substrate preincubated with compound for 60 mins followed by substrate addition and measured after 90 mins by fluorescence based microplate reader analysis relative to control; settings: time 150.0 min
T1 sequence (whole entry): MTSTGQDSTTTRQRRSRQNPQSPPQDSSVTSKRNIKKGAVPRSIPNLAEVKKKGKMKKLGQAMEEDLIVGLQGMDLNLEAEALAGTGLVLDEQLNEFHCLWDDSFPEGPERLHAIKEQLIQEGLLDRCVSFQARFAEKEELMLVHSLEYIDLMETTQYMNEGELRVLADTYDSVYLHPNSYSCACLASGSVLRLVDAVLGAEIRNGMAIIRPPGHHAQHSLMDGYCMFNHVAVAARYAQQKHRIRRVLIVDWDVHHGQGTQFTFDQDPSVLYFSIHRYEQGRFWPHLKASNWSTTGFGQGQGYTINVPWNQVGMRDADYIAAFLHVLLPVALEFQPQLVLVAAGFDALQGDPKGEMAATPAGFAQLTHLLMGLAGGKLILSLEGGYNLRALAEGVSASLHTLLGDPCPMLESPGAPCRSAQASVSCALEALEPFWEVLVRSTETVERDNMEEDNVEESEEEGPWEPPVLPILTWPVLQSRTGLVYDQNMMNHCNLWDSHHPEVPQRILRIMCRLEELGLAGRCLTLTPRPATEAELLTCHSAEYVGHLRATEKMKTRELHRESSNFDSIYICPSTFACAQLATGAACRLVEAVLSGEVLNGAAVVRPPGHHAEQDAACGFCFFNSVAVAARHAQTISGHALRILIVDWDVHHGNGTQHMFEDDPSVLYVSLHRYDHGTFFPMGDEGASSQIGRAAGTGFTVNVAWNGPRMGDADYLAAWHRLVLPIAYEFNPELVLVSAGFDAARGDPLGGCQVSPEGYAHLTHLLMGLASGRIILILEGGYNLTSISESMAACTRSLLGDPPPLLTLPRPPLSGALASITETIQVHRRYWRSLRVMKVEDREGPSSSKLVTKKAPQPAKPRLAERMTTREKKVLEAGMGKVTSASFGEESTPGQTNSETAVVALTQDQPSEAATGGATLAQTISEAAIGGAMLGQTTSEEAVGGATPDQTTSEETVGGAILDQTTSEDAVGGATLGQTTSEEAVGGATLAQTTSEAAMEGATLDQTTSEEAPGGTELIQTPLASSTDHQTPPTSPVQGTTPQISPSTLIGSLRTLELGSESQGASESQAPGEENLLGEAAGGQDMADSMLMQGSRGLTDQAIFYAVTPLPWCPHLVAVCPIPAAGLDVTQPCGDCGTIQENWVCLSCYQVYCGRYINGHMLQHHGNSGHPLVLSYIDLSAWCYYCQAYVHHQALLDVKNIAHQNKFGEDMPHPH

[10] = target: Histone deacetylase 2 (Homo sapiens) (UniProt Q92769); experiment: as §1, with “C-terminal FLAG tagged” for “N-terminal GST-tagged”, “length human” for “length”, “HDAC2” for “human HDAC6”, “488” for “1215”
Cal27CisR [11] = experiment: Inhibition of class I/6 HDAC (unknown origin) in cisplatin resistant human Cal27CisR cells at < 10 uM using Boc-Lys(epsilon-Ac)-AMC as substrate preincubated with compound for 18 hrs followed by substrate addition and measured after 3 hrs by NOVOstar microplate reader analysis; type: cell-based
[12] = target: T2, Histone deacetylase 8 (Homo sapiens) (UniProt Q9BY41); experiment: Inhibition of recombinant HDAC8 (unknown origin) at > 10 uM using Bos-Lys(TFA)-AMC as substrate preincubated with compound for 5 mins and measured after 90 mins by NOVOstar microplate reader analysis relative to control; settings: time 95.0 min
T2 sequence (whole entry): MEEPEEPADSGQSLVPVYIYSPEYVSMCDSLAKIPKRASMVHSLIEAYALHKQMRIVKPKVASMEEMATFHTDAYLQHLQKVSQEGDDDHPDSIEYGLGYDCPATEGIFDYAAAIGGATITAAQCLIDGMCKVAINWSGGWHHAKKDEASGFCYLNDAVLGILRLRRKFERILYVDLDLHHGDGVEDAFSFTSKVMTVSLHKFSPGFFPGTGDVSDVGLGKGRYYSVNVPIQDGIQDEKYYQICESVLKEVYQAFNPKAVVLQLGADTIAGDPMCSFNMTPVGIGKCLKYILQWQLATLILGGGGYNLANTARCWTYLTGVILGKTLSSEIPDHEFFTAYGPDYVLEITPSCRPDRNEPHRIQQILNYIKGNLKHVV

A2780cisR [13] = experiment: Cytotoxicity against cisplatin resistant human A2780 cisR cells at < 100 uM assessed as reduction in cell viability incubated for 72 hrs by MTT assay; type: functional, cell-based
CAL-27 [14] = experiment: Cytotoxicity against human CAL-27 cells at < 100 uM assessed as reduction in cell viability incubated for 72 hrs by MTT assay; type: functional, cell-based
[15] = target: T3, Protein deacetylase HDAC6 (Homo sapiens, UniProt Q9UBN7); experiment: as §1, with “cells” for “cells at > 10 uM”, “analysis” for “analysis relative to control”
T3 sequence (Q9UBN7 whole entry): T1 sequence (whole entry)

Histone deacetylase 4 [16] = target: T4, Histone deacetylase 4 (Homo sapiens, UniProt P56524); experiment: Inhibition of recombinant HDAC4 (unknown origin) using Bos-Lys(TFA)-AMC as substrate preincubated with compound for 5 mins and measured after 90 mins by NOVOstar microplate reader analysis
Histone deacetylase 8 [17] = target: T5, Histone deacetylase 8 (Homo sapiens, UniProt Q9BY41); experiment: Inhibition of recombinant HDAC8 (unknown origin) using Bos-Lys(TFA)-AMC as substrate preincubated with compound for 5 mins and measured after 90 mins by NOVOstar microplate reader analysis
T5 sequence (Q9BY41 whole entry): T2 sequence (whole entry)

CAL-27 [18] = experiment: Inhibition of class I/6 HDAC (unknown origin) in human CAL-27 cells at < 10 uM using Boc-Lys(epsilon-Ac)-AMC as substrate preincubated with compound for 18 hrs followed by substrate addition and measured after 3 hrs by NOVOstar microplate reader analysis; type: cell-based
[19] = target: Histone deacetylase 3/Nuclear receptor corepressor 2 (HDAC3/NCoR2) (Homo sapiens) (UniProt O15379+Q9Y618); experiment: as §1, with “C-terminal His tagged human” for “N-terminal GST-tagged full length”, “HDAC3” for “human HDAC6”, “428” for “1215”, “residues)/N-terminal GST-tagged human NcoR2” for “residues)”, “at” for “at >”; settings: time 150.0 min
A2780 cisR = experiment: Inhibition of class I/6 HDAC (unknown origin) in cisplatin resistant human A2780 cisR cells at < 10 uM using Boc-Lys(epsilon-Ac)-AMC as substrate preincubated with compound for 18 hrs followed by substrate addition and measured after 3 hrs by NOVOstar microplate reader analysis; type: cell-based
Histone deacetylase 1 [20] = target: T6, Histone deacetylase 1 (Homo sapiens, UniProt Q13547); experiment: as §1, with “C-terminal 6-his/FLAG tagged” for “N-terminal GST-tagged”, “length human” for “length”, “HDAC1” for “human HDAC6”, “482” for “1215”, “at” for “at >”; settings: time 150.0 min
Cal27CisR [21] = experiment: Cytotoxicity against cisplatin resistant human Cal27CisR cells at < 10 uM assessed as reduction in cell viability incubated for 72 hrs by MTT assay; type: functional, cell-based
A2780 [22] = experiment: Inhibition of class I/6 HDAC (unknown origin) in human A2780 cells at < 10 uM using Boc-Lys(epsilon-Ac)-AMC as substrate preincubated with compound for 18 hrs followed by substrate addition and measured after 3 hrs by NOVOstar microplate reader analysis; type: cell-based
A2780 [23] = experiment: Cytotoxicity against human A2780 cells at < 100 uM assessed as reduction in cell viability incubated for 72 hrs by MTT assay; type: functional, cell-based
Histone deacetylase 1 [24] = target: T6, Histone deacetylase 1; experiment: Inhibition of FLAG tagged full length human HDAC1 expressed in HEK293T cells using acyl-H3K9 peptide as substrate preincubated with compound for 20 mins followed by substrate addition and measured after 120 mins by HPLC analysis
Histone deacetylase 4 [25] = target: T4, Histone deacetylase 4; experiment: Inhibition of FLAG tagged full length human HDAC4 expressed in HEK293T cells using acyl-H3K9 peptide as substrate preincubated with compound for 20 mins followed by substrate addition and measured after 120 mins by HPLC analysis
Histone deacetylase 8 [26] = target: T5, Histone deacetylase 8; experiment: Inhibition of FLAG tagged full length human HDAC8 expressed in HEK293T cells using acyl-H3K9 peptide as substrate preincubated with compound for 20 mins followed by substrate addition and measured after 120 mins by HPLC analysis; type: cell-based

T4 sequence (P56524 whole entry): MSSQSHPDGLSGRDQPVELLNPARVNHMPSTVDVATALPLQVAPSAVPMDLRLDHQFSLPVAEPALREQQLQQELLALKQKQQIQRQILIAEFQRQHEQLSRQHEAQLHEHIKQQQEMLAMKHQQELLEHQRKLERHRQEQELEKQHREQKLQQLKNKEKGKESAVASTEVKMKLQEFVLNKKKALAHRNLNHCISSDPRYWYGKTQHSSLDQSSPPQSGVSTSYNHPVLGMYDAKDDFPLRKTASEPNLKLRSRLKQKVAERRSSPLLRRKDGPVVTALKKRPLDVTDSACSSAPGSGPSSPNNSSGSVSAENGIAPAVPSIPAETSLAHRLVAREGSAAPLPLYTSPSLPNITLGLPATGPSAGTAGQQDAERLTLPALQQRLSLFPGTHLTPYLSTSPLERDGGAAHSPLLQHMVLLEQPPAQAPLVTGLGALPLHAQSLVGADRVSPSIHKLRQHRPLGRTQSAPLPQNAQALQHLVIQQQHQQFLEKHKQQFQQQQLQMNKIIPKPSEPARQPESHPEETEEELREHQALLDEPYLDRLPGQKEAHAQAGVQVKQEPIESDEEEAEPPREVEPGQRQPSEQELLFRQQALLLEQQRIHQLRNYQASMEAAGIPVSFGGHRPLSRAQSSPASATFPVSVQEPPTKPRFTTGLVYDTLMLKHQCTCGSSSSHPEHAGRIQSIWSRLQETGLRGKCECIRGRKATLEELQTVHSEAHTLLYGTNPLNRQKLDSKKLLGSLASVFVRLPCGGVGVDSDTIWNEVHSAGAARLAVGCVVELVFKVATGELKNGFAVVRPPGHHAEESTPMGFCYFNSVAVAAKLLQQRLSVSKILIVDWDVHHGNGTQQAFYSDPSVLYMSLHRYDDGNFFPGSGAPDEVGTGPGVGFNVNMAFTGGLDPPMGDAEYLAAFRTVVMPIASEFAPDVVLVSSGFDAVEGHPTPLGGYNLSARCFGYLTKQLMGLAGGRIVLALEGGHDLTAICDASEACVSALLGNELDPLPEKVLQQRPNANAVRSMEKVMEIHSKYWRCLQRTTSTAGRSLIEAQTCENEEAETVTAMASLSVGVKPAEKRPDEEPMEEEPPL
T6 sequence (Q13547 whole entry): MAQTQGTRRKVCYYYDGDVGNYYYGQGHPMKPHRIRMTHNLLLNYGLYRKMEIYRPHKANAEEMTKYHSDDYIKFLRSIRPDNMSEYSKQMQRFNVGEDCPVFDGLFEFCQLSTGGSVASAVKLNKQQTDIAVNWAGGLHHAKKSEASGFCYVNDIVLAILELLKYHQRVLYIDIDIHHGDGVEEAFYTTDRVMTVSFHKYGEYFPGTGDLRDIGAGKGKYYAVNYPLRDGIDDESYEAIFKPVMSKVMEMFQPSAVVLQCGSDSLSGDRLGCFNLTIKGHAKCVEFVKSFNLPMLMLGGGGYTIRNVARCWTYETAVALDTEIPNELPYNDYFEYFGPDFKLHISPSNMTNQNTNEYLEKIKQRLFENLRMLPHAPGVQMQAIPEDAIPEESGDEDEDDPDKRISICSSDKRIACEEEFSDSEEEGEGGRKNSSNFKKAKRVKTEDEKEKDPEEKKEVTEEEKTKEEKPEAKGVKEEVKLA
Chain of Histone deacetylase 2 (Homo sapiens) (Q92769 whole entry): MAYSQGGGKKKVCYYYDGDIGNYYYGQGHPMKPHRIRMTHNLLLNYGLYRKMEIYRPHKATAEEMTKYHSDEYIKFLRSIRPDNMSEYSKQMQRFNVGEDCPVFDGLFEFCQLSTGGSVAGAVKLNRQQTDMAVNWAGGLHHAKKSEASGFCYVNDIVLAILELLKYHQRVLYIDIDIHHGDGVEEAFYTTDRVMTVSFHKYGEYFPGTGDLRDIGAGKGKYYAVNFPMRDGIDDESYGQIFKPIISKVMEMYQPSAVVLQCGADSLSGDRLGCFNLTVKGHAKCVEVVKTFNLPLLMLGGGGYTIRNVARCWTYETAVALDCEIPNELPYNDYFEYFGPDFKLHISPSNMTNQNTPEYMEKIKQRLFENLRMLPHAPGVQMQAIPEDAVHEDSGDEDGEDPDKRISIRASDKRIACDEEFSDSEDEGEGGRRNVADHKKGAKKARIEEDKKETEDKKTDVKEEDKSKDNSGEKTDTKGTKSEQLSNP
Chain of Histone deacetylase 3 (O15379 whole entry): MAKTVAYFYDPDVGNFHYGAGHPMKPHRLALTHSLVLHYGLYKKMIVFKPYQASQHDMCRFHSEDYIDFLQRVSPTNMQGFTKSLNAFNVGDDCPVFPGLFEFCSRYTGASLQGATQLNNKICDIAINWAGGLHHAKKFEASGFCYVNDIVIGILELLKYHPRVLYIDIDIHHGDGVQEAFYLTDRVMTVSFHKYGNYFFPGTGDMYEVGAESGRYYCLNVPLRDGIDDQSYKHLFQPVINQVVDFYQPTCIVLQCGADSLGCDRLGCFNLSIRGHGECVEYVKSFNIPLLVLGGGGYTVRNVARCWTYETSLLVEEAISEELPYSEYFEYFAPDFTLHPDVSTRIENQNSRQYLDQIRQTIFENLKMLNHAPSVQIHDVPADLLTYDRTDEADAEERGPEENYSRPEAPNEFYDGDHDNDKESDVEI

SMILES: CN(C)c1ccc(C(=O)N(CC(=O)NCc2ccccc2)Cc2ccc(C(=O)Nc3cc(-c4ccncc4)ccc3N)cc2)cc1
- pIC50 (Histone deacetylase 3): < 5.18
- logD [1]: 3.16

SMILES: Nc1ccccc1NC(=O)c1ccc(CNC(=O)OCc2cccnc2)cc1 [ENTINOSTAT]
- Activity (A2780 [2]): 10%
- Activity [3]: <5%
- pIC50 (cells): 5.44
- pIC50 (MV4-11): 6.39
- pIC50 (A2780cisR [4]): 5.25
- pIC50 (CAL-27 [5]): 5.53
- Activity (CAL-27 [6]): <5%
- pIC50 (HL-60): 6.03
- Activity (A2780cisR [7]): 15%
- IC50 at 72 h [8]: 7.11 µM

SMILES: CN(C)c1ccc(C(=O)N(CC(=O)NCc2ccccc2)Cc2ccc(C(=O)NNC/C=C/c3ccccc3)cc2)cc1
- inhibition [9]: < 25%
- inhibition [10]: < 25%
- inhibition (Cal27CisR [11]): inactive
- inhibition [12]: < 25%
- Activity (A2780cisR [13]): inactive
- Activity (CAL-27 [14]): inactive
- pIC50 [15]: < 5.00
- pIC50 (Histone deacetylase 4 [16]): < 5.00
- pIC50 (Histone deacetylase 8 [17]): < 5.00
- inhibition (CAL-27 [18]): inactive
- inhibition [19]: 32%
- inhibition (A2780 cisR): inactive
- inhibition (Histone deacetylase 1 [20]): 37%
- Activity (Cal27CisR [21]): inactive
- inhibition (A2780 [22]): inactive
- Activity (A2780 [23]): inactive

SMILES: CCCCCCCCCCCCCCCCNNC(=O)c1cccs1
- pIC50 (Histone deacetylase 1 [24]): < 4.00
- pIC50 (Histone deacetylase 4 [25]): < 4.00
- pIC50 (Histone deacetylase 8 [26]): < 4.00
